Results reported in ChEMBL document CHEMBL4425164, “5-Alkyl-2-urea-Substituted Pyridines: Identification of Efficacious Glucokinase Activators with Improved Properties” (ACS Med Chem Lett, 2016).
Values after ≈ are worked out from the molar mass of the structure shown.

How the values were obtained:
[1] = target: T1, Hexokinase-4 (Homo sapiens) (UniProt P35557); assay: Activation of human recombinant glucokinase assessed as enzyme affinity for glucose […] as substrate in presence of NAD+ by glucose 6-phosphate dehydrogenase coupled assay
T1 sequence (whole entry): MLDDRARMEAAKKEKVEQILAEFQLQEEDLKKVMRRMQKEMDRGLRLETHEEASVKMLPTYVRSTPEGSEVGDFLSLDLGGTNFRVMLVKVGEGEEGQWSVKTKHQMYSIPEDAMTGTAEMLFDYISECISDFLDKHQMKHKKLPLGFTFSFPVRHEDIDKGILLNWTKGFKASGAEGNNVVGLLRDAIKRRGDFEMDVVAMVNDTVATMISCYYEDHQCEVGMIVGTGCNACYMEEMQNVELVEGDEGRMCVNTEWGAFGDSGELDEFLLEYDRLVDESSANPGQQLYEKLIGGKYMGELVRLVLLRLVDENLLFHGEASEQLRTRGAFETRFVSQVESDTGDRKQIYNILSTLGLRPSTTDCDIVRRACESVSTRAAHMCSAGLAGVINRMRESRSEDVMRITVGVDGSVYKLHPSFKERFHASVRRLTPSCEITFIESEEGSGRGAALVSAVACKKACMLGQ

Hexokinase-4 [2] = target: T2, Hexokinase-4 (Homo sapiens, UniProt P35557); assay: Activation of human recombinant glucokinase using 5 mM glucose as substrate in presence of NAD+ by glucose 6-phosphate dehydrogenase coupled assay
T2 sequence (P35557 whole entry): T1 sequence (whole entry)

Hexokinase-4 [3] = target: T2, Hexokinase-4; assay: Activation of human recombinant glucokinase using 5 mM glucose as substrate in presence of NAD+ and 4% HSA by glucose 6-phosphate dehydrogenase coupled assay
[4] = target: T1, Hexokinase-4 (Homo sapiens); assay: Activation of human recombinant glucokinase assessed as Vmax ratio using 0.16 to 80 mM of glucose as substrate in presence of NAD+ by glucose 6-phosphate dehydrogenase coupled assay relative to control
[5] = Solubility of the compound in PBS at pH 7.4; type: physicochemical; settings: buffer
[6] = target: T1, Hexokinase-4 (Homo sapiens); assay: Ratio of EC50 for activation of human recombinant glucokinase in presence of 4% HSA to EC50 for activation of human recombinant glucokinase in absence of 4% HSA
[7] = AUC in rat at 2 mg/kg, po; type: ADME, organism-based; settings: in vivo
[8] = Volume of distribution at steady state in rat at 0.5 mg/kg, iv; type: ADME, organism-based; settings: in vivo, read-out: Vdss
[9] = Clearance in rat at 0.5 mg/kg, iv; type: ADME, organism-based; settings: in vivo
[10] = Half life in rat at 0.5 mg/kg, iv; type: ADME, organism-based; settings: in vivo
[11] = Fraction unbound in human plasma; type: ADME, cell-free
[12] = Clearance in mouse at 1 mg/kg, iv; type: ADME, organism-based; settings: in vivo
Rattus norvegicus [13] = assay: Antidiabetic activity in po dosed Sprague-Dawley rat assessed as decrease in blood glucose AUC measured at 0.5 to 5 hrs by OGTT; type: functional, organism-based
Rattus norvegicus [14] = assay: Antidiabetic activity in Sprague-Dawley rat assessed as decrease in blood glucose AUC at 10 mg/kg, po measured at 0.5 to 5 hrs by OGTT; type: functional
[15] = Oral bioavailability in mouse at 5 mg/kg; type: ADME, organism-based; settings: in vivo
[16] = AUC in mouse at 5 mg/kg, po; type: ADME, organism-based; settings: in vivo
Rattus norvegicus [17] = assay: Antidiabetic activity in Sprague-Dawley rat assessed as decrease in blood glucose AUC at 3 mg/kg, po measured at 0.5 to 5 hrs by OGTT; type: functional
[18] = Half life in mouse at 1 mg/kg, iv; type: ADME, organism-based; settings: in vivo
[19] = Fraction unbound in rat plasma; type: ADME, cell-free
[20] = Drug metabolism assessed as oxidation at THP ring site by metabolic ID study
[21] = Fraction unbound in mouse plasma; type: ADME, cell-free
Rattus norvegicus [22] = assay: Antidiabetic activity in Sprague-Dawley rat assessed as decrease in blood glucose AUC at 100 mg/kg, po measured at 0.5 to 5 hrs by OGTT; type: functional
[23] = Volume of distribution at steady state in mouse at 1 mg/kg, iv; type: ADME, organism-based; settings: in vivo, read-out: Vdss
[24] = Oral bioavailability in rat at 2 mg/kg; type: ADME, organism-based; settings: in vivo
Rattus norvegicus [25] = assay: Antidiabetic activity in Sprague-Dawley rat assessed as decrease in blood glucose AUC at 30 mg/kg, po measured at 0.5 to 5 hrs by OGTT; type: functional
[26] = Intrinsic clearance in human liver microsomes; type: ADME, Microsome; settings: read-out: CLH
Mus musculus [27] = assay: Antidiabetic activity in ob/ob mouse diabetic model assessed as decrease in blood glucose AUC at 30 mg/kg, po administered 30 mins prior to oral glucose load measured at 30 to 120 mins by OGTT; type: functional
Mus musculus [28] = assay: Antidiabetic activity in po dosed ob/ob mouse diabetic model assessed as decrease in blood glucose AUC administered 30 mins prior to oral glucose load measured at 30 to 120 mins by OGTT; type: functional, organism-based

Compound | S0.5 [1] [mM] | EC50 (Hexokinase-4 [2]) [µM] | EC50 (Hexokinase-4 [3]) [µM] | Ratio [4] | further results
CNC(=O)Nc1cc(Oc2cncc(OC)c2)c([C@@H]2CCCN(C)C2)cn1 | 0.73 | 2.3 | 2.9 | 0.78 | 
CCOCCc1cnc(NC(=O)NC)cc1Oc1cncc(C)c1 | 0.59 | 0.098 | 0.11 | 0.84 | solubility [5]: 500 µM (≈ 165 µg/mL); Ratio EC50 [6]: 1 to 3
CNC(=O)Nc1cc(Oc2cncc(C)c2)c(-c2ccc(OCC(C)(C)O)nc2)cn1 |  |  |  |  | AUC ([7]; read-out: AUC): 2.7 µM·h; Vd [8]: 2.7 L/kg; clearance [9]: 30 mL/min/kg; half-life [10]: 2.3 h
CNC(=O)Nc1cc(Oc2cncc(OC)c2)c([C@H]2CCCOC2)cn1 | 0.65 | 0.16 | 0.22 | 1.1 | Fu [11]: 16%; AUC [7]: 3.64 µM·h; clearance [12]: 157 mL/min/kg; inhibition (Rattus norvegicus [13]): Dose-dependent effect; Vd [8]: 0.66 L/kg; inhibition in vivo at 10 mg/kg (Rattus norvegicus [14]): 13%; bioavailability [15]: 5%; AUC [16]: 0.13 µM·h; inhibition in vivo at 3 mg/kg (Rattus norvegicus [17]): 3%; half-life [18]: 0.3 h; solubility [5]: 303 µM (≈ 109 µg/mL); Fu [19]: 28%; Drug metabolism [20]: Metabolite detected; CL [9]: 28.3 mL/min/kg; Fu [21]: 14%; inhibition in vivo at 100 mg/kg (Rattus norvegicus [22]): 40%; half-life [10]: 0.3 h; Vd [23]: 3.3 L/kg; F [24]: 20%; inhibition in vivo at 30 mg/kg (Rattus norvegicus [25]): 20%
CNC(=O)Nc1cc(Oc2cncc(OC)c2)c([C@H]2COCCC2(F)F)cn1 | 0.51 | 0.53 | 0.99 | 0.89 | 
CNC(=O)Nc1cc(Oc2cncc(OC)c2)c(C2=CCOCC2)cn1 | 0.82 | 0.066 | 0.098 | 1 | clearance [9]: 41.7 mL/min/kg
CNC(=O)Nc1cc(Oc2cncc(OC)c2)c(C2CCOCC2)cn1 | 0.62 | 0.11 | 0.15 | 1 | clearance [9]: 46.7 mL/min/kg
CNC(=O)Nc1cc(Oc2cncc(OC)c2)c(C2=CCCOC2)cn1 | 0.69 | 0.4 | 0.13 | 0.99 | clearance [9]: 38.3 mL/min/kg
CNC(=O)Nc1cc(Oc2cncc(OC)c2)c([C@@H]2COCC[C@@H]2O)cn1 (relative stereo) | 0.66 |  |  | 0.83 | 
CNC(=O)Nc1cc(Oc2cncc(OC)c2)c([C@@H]2CCCOC2)cn1 | 0.62 | 0.72 | 0.11 | 0.94 | 
CNC(=O)Nc1cc(Oc2cncc(OC)c2)c([C@H]2COCC[C@@H]2F)cn1 | 0.85 | 0.17 | 0.18 | 1 | clearance [9]: 26.7 mL/min/kg

The next lines start with results.

S0.5 [1] [mM] | EC50 (Hexokinase-4 [2]) [µM] | EC50 (Hexokinase-4 [3]) [µM] | Ratio [4] | Compound | further results
0.67 | 6.7 | 7.5 | 0.88 | CNC(=O)Nc1cc(Oc2cncc(C)c2)c([C@]2(O)C[C@H](O)C2)cn1 | 
0.47 |  |  | 0.94 | CNC(=O)Nc1cc(Oc2cncc(C)c2)c([C@@H]2CC[C@@H](O)C2)cn1 | 
0.54 | 0.037 | 0.056 | 0.87 | CNC(=O)Nc1cc(Oc2cncc(C)c2)c(CCCCO)cn1 | solubility [5]: 500 µM (≈ 165 µg/mL); Ratio EC50 [6]: 1 to 3
0.68 | 0.051 | 0.12 | 0.54 | CNC(=O)Nc1cc(Oc2cncc(C)c2)c([C@H]2C[C@@H](C(C)(C)O)C2)cn1 | 
0.55 | 0.066 | 0.1 | 0.96 | CNC(=O)Nc1cc(Oc2cncc(C)c2)c(CCCO)cn1 | solubility [5]: 500 µM (≈ 158 µg/mL); Ratio EC50 [6]: 1 to 3
0.6 | 0.13 | 0.33 | 0.9 | CNC(=O)Nc1cc(Oc2cncc(C)c2)c(CCO)cn1 | solubility [5]: 450 µM (≈ 136 µg/mL); Ratio EC50 [6]: 1 to 3
0.53 | 0.11 | 0.19 | 1.1 | CNC(=O)Nc1cc(Oc2cncc(OC)c2)c([C@@H]2CCOC2)cn1 | 
0.62 |  |  | 0.87 | CNC(=O)Nc1cc(Oc2cncc(C)c2)c([C@H]2C[C@@H]2C(C)(C)O)cn1 (relative stereo) | 
0.58 |  |  | 1 | CNC(=O)Nc1cc(Oc2cncc(C)c2)c([C@H]2C[C@@H]2CO)cn1 (relative stereo) | 
0.57 | 0.04 | 0.07 | 0.82 | CNC(=O)Nc1cc(Oc2cncc(C)c2)c([C@H]2C[C@@H](CO)C2)cn1 | 
0.66 | 0.11 | 0.14 | 0.97 | CNC(=O)Nc1cc(Oc2cncc(C)c2)c([C@H]2C[C@@H](O)C2)cn1 | Fu [11]: 25%; AUC ([7]; read-out: AUC): 1.84 µM·h; clearance [12]: 14.5 mL/min/kg; microsomal CLint [26]: < 14 µL/min/mg; Vd [8]: 1.2 L/kg; bioavailability [15]: 20%; AUC [16]: 3.69 µM·h; half-life [18]: 1.2 h; solubility [5]: 332 µM (≈ 109 µg/mL); inhibition in vivo at 30 mg/kg (Mus musculus [27]): 32%; clearance [9]: 21.7 mL/min/kg; Fu [21]: 9.4%; half-life [10]: 3 h; Vd [23]: 0.65 L/kg; bioavailability [24]: 39%; inhibition (Mus musculus [28]): Dose-dependent effect
0.56 | 0.67 | 0.82 | 0.95 | CNC(=O)Nc1cc(Oc2cncc(C)c2)c(C(C)CO)cn1 (stereo not given) | Ratio EC50 [6]: 1 to 3
0.7 | 0.16 | 0.3 | 0.71 | CNC(=O)Nc1cc(Oc2cncc(C)c2)c([C@H]2C[C@](C)(O)C2)cn1 | 
0.51 | 0.072 | 0.097 | 1 | CNC(=O)Nc1cc(Oc2cncc(C)c2)c([C@H]2CCC[C@H](O)C2)cn1 | 
0.55 | 0.072 | 0.11 | 0.92 | CNC(=O)Nc1cc(Oc2cncc(C)c2)c([C@H]2C[C@H](O)C2)cn1 | 
